ChEMBL document CHEMBL4145594, “Discovery of N-Alkyl Piperazine Side Chain Based CXCR4 Antagonists with Improved Drug-like Properties” (ACS Med Chem Lett, 2018)
pIC50: −log10 of the molar value. Active and inactive are the calls of the source. The rule behind the calls is not given here.

Experiments:
[1] = Stability in human liver microsomes assessed as parent compound remaining at 0.5 uM after 10 mins by LC-MS analysis
[2] = target: T1, C-X-C chemokine receptor type 4 (Homo sapiens, UniProt P61073); assay: Agonist activity at CXCR4 in human CCRF-CEM cells measured for 90 secs by calcium flux assay; type: functional, cell-based
[3] = target: T1, C-X-C chemokine receptor type 4; assay: Antagonist activity at CXCR4 in human CCRF-CEM cells assessed as inhibition of […]-induced calcium flux pretreated for 25 mins followed by […] addition measured for 90 secs by calcium-dye based assay; type: functional, cell-based
[4] = target: Muscarinic acetylcholine receptor; assay: Antagonist activity at mAChR in human CCRF-CEM cells assessed as inhibition of acetylcholine-induced calcium flux pretreated for 25 mins followed by acetylcholine addition measured for 90 secs by calcium-dye based assay; type: functional, cell-based
[5] = Stability in rat liver microsomes assessed as parent compound remaining at 0.5 uM after 10 mins by LC-MS analysis
[6] = Stability in mouse liver microsomes assessed as parent compound remaining at 0.5 uM after 10 mins by LC-MS analysis
[7] = target: Cytochrome P450 3A4 (Homo sapiens, UniProt P08684); assay: Inhibition of CYP3A4 (unknown origin); type: ADME
[8] = species on record: Homo sapiens; assay: Therapeutic index, ratio of IC50 for AChE (unknown origin) to IC50 for CXCR4 in human CCRF-CEM cells; type: cell-based
[9] = target: Cytochrome P450 2D6 (Homo sapiens, UniProt P10635)
Description: Inhibition of recombinant human CYP2D6 expressed in insect cell microsomes using AMMC as substrate pretreated for 30 mins followed by NADPH addition measured after 45 mins by fluorescence assay

[10] = in vitro; conditions: PAMPA, pH 7.4
Description: Permeability of the compound at pH 7.4 after 4 hrs by PAMPA

T1 sequence (P61073 whole entry): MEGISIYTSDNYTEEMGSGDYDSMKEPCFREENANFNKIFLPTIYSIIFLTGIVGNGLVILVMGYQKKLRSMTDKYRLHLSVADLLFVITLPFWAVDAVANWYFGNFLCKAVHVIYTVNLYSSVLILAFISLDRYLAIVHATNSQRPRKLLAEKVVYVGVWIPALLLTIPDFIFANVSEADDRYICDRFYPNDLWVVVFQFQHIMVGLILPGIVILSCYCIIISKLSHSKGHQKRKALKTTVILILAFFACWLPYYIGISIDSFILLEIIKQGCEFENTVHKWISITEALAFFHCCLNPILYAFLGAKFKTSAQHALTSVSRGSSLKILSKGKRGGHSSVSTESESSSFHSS
Chain of Cytochrome P450 3A4 (P08684 whole entry): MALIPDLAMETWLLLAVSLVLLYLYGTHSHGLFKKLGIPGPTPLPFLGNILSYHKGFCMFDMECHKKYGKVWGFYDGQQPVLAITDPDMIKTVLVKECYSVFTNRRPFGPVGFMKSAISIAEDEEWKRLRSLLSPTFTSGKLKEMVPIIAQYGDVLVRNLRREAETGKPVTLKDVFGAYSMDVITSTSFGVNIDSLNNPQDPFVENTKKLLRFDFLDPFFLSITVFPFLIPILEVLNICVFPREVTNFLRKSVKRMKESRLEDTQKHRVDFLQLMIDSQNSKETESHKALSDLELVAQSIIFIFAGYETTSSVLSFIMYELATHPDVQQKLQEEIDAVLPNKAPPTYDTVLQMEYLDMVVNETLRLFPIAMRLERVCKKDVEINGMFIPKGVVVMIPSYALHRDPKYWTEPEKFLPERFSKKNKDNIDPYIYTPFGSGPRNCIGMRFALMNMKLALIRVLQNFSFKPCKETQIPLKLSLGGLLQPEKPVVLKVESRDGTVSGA
Chain of Cytochrome P450 2D6 (P10635 whole entry): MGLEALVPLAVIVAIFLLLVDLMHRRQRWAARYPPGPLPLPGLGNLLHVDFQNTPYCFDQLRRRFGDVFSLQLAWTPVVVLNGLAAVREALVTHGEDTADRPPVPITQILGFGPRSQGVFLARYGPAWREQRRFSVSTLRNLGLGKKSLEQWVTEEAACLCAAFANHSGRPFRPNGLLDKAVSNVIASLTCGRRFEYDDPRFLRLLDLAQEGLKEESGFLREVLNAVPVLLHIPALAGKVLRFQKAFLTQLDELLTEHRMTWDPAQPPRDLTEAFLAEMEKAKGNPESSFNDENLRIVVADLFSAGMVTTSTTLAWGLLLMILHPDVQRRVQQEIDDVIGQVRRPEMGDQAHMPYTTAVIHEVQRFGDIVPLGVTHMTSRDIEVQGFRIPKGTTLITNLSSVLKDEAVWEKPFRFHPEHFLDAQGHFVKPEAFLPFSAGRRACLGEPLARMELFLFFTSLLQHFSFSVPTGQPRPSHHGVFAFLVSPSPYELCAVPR

Compound	remaining at 10 min, 0.5 µM [1] [%]	Activity [2]	pIC50 [3]	IC50 [4] [µM]	remaining at 10 min, 0.5 µM [5] [%]	remaining at 10 min, 0.5 µM [6] [%]	pIC50 [7]	Ratio IC50 [8]	pIC50 [9]	Papp at 4 h [10] [×10⁻⁶ cm/s]
c1ccc2c(c1)CN[C@@H](CN(CCN1CCNCC1)[C@H]1CCCc3cccnc31)C2	96	inactive	6.26	> 14	62	79	< 4.92	< 100	5.38	1
CN1CCN(CCCN(CC2Cc3ccccc3CN2C)[C@H]2CCCc3cccnc32)CC1 (single isomer, unassigned)	60	inactive	6.27	> 17	2	43	< 4.70		5.29	51.3
c1cnc2c(c1)CN[C@H](CN(CCCN1CCNCC1)[C@H]1CCCc3cccnc31)C2	100	inactive	5.58	> 17	87	63	< 4.70		< 4.70	
c1ccc2c(c1)CN[C@H](CN(CCCN1CCNCC1)[C@H]1CCCc3cccnc31)C2	99	inactive	5.94	> 17	88	88	< 4.70		5.85	1.6
c1cnc2c(c1)CCC[C@@H]2N(CCCN1CCNCC1)Cc1cc2ccccc2cn1	66	inactive	7.77	3.2	59	74	< 4.70		5.53	24.3
NC(=O)N1CCN(CCCN(C[C@H]2Cc3ccccc3CN2)[C@H]2CCCc3cccnc32)CC1	79	inactive	6.02	4.98	4	42	< 4.70		5.38	6.7
c1ccc2c(c1)CN[C@@H](CN(CCCCN1CCNCC1)[C@H]1CCCc3cccnc31)C2	82	inactive	7.18	> 14	15	96	< 4.92		5.84	1.4
c1cnc2c(c1)CN[C@@H](CN(CCCN1CCNCC1)[C@H]1CCCc3cccnc31)C2	79	inactive	6.77	> 17	79	78	< 4.70		< 4.70	0.9
c1cnc2c(c1)CCC[C@@H]2N(CCCN1CCNCC1)Cc1nc2ccccc2[nH]1	63	inactive		> 17	29	68	4.90		< 4.70	14.6
c1ccc2c(c1)CN[C@@H](CN(CC[C@@H]1CCCNC1)[C@H]1CCCc3cccnc31)C2	75	inactive	6.79	> 14	28	23	< 4.92		7.52	
NCCCCN(Cc1nc2ccccc2[nH]1)[C@H]1CCCc2cccnc21 [MAVORIXAFOR]		inactive		> 17						
